This passage reports AC50 results from ChEMBL document CHEMBL5291721, “A preclinical secondary pharmacology resource illuminates target-adverse drug reaction associations of marketed drugs” (Nat Commun, 2023).

The target in one assay is T1, Androgen receptor (Homo sapiens, UniProt P10275).
T1 sequence (P10275 whole entry): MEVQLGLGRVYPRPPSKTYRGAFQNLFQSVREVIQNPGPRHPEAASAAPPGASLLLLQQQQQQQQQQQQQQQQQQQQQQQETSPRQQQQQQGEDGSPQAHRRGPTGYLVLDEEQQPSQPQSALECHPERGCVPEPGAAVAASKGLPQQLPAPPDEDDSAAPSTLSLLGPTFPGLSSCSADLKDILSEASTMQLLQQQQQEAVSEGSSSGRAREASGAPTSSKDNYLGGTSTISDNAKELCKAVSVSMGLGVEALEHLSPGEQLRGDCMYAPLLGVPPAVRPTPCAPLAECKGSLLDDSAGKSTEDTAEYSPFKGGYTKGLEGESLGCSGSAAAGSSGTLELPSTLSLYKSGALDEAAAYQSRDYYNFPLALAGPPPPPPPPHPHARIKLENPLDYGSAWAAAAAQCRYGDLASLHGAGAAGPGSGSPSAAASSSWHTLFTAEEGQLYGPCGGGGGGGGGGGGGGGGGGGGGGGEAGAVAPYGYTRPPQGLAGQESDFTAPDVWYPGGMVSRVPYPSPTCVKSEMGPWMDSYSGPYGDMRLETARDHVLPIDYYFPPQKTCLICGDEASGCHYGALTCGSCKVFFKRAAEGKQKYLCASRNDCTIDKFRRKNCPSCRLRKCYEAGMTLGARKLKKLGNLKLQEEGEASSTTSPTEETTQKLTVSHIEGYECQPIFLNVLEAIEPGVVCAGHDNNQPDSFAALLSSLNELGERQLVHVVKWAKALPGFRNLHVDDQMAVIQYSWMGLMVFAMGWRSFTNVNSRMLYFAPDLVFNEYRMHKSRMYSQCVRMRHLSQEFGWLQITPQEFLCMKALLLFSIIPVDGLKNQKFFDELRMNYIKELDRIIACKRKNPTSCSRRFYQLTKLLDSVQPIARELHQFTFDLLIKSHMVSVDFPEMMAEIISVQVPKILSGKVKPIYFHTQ

Assay [1] concerns the target T2, Alpha-2A adrenergic receptor (Homo sapiens, UniProt P08913).
T2 sequence (P08913 whole entry): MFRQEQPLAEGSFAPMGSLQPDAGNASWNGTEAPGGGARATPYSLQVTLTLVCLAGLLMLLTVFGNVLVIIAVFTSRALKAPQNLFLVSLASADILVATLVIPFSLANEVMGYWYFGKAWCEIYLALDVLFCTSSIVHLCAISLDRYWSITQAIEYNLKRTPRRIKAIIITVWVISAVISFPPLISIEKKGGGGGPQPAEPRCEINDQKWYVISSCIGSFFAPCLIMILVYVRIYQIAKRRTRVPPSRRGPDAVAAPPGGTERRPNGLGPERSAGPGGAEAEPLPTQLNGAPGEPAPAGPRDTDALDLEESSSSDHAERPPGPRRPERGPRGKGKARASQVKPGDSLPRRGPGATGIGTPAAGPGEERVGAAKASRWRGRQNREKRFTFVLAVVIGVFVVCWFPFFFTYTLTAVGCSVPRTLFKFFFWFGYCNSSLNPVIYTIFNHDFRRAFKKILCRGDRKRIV
The format is functional, cell-based.

The target in assay [2] is T3, Muscarinic acetylcholine receptor M2 (Homo sapiens, UniProt P08172).
T3 sequence (P08172 whole entry): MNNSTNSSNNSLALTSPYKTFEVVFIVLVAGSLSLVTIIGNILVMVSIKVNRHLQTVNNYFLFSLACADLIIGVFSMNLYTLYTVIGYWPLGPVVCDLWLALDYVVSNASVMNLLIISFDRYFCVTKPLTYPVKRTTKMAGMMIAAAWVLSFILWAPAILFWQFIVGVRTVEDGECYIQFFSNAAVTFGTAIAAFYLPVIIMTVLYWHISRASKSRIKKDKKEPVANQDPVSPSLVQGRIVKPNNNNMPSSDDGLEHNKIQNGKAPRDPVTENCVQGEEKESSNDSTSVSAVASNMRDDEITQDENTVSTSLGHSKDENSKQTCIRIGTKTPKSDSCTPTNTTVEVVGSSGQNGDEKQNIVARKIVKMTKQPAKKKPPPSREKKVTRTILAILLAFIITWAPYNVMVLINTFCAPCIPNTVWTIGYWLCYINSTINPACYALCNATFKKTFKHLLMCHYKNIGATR
Type of assay: functional, cell-based.

Another assay addresses D(1A) dopamine receptor (Homo sapiens, UniProt P21728). Type of assay: functional, cell-based.
Assay [3] addresses Gamma-aminobutyric acid receptor subunit alpha-1 (Rattus norvegicus, UniProt P62813). Type of assay: functional.
Assay [4] has as its target Glutamate receptor ionotropic, NMDA 1 (Rattus norvegicus, UniProt P35439).
In a further assay the target is Histamine H2 receptor (Homo sapiens, UniProt P25021). Type of assay: functional, cell-based.
Histamine H2 receptor, sequence (P25021 whole entry): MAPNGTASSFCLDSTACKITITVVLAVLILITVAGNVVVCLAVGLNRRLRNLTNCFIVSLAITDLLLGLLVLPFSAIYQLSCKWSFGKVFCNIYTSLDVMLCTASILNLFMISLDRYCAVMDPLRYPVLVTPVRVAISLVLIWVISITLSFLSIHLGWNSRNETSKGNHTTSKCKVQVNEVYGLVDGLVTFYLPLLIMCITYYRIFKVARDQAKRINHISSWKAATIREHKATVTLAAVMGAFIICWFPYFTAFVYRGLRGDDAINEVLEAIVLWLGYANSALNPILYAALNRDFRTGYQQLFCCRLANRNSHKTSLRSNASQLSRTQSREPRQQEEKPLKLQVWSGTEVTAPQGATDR
In assay [5] the target is T4, 5-hydroxytryptamine receptor 3A (Homo sapiens, UniProt P46098).
T4 sequence (P46098 whole entry): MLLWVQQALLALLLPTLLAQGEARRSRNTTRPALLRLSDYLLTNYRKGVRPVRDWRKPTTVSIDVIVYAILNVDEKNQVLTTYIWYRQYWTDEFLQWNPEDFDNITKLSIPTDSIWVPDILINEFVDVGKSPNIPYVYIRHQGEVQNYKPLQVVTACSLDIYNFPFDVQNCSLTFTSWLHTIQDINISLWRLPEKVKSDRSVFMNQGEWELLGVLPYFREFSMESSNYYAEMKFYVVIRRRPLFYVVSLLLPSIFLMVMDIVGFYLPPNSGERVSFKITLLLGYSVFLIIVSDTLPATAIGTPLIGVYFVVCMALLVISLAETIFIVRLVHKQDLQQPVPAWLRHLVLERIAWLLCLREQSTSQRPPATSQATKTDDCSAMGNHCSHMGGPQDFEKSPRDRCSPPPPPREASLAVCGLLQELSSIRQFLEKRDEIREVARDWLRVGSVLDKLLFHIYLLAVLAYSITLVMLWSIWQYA
The format is functional.

In another assay the target is Melanocortin receptor 3 (Homo sapiens, UniProt P41968).
Melanocortin receptor 3, sequence (P41968 whole entry): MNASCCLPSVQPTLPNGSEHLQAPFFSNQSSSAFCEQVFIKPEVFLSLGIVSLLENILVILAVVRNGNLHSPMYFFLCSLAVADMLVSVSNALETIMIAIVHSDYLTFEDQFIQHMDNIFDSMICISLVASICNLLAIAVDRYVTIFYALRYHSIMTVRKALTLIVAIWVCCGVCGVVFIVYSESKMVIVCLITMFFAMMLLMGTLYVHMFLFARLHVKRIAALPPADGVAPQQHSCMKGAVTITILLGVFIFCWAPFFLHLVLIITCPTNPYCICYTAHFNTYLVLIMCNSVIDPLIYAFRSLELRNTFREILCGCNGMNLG
In assay [6] the target is Kappa-type opioid receptor (Homo sapiens, UniProt P41145).
Kappa-type opioid receptor, sequence (P41145 whole entry): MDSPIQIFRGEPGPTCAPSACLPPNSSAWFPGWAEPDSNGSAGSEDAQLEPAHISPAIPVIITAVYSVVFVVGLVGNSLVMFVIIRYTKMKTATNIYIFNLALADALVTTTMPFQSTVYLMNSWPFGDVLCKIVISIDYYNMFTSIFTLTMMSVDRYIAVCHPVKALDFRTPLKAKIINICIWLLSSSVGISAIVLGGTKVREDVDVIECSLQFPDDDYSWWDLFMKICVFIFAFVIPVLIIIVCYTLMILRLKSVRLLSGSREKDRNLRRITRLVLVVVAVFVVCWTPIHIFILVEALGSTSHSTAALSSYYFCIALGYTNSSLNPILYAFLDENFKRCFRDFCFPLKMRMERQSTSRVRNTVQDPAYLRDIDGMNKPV
In another assay the target is D(3) dopamine receptor (Homo sapiens, UniProt P35462).
D(3) dopamine receptor, sequence (P35462 whole entry): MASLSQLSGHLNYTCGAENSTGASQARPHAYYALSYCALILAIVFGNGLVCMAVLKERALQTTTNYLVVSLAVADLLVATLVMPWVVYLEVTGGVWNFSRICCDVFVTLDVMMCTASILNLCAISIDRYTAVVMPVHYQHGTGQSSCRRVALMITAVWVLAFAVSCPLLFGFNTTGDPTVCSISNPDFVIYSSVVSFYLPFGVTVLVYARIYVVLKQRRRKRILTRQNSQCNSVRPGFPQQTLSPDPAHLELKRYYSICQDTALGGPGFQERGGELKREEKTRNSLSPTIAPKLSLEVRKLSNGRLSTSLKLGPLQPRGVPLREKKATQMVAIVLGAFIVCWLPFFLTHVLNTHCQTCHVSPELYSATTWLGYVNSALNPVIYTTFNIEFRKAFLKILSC

Molecules are shown by their SMILES.
Note: assay procedure not described here.

Gamma-aminobutyric acid receptor subunit alpha-1, sequence (P62813 whole entry): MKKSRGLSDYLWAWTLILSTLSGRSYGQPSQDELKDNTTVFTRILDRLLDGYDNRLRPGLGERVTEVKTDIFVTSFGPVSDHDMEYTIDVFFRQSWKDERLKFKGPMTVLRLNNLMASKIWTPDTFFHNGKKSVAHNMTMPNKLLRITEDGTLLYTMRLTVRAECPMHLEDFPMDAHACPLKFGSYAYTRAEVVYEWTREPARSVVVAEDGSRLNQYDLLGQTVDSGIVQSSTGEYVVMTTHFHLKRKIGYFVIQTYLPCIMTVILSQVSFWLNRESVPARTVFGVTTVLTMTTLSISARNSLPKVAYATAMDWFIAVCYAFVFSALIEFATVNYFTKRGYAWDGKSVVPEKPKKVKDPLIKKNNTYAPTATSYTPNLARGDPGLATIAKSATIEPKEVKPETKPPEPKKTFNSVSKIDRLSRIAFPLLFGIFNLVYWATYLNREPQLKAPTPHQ
D(1A) dopamine receptor, sequence (P21728 whole entry): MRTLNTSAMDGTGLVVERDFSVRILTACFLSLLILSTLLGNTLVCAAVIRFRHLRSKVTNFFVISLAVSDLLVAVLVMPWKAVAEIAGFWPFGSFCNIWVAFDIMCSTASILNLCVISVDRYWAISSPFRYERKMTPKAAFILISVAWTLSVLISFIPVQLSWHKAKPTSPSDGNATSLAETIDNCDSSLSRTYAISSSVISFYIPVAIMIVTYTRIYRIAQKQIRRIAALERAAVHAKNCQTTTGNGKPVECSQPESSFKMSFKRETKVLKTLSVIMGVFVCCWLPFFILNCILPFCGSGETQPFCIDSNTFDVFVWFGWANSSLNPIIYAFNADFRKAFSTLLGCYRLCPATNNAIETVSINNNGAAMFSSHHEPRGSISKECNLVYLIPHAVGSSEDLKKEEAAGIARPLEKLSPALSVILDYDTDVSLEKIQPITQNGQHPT

In general, AC50 refers to the concentration giving half of the maximal activity seen. High values mean weaker potency, low ones greater potency. The compound `NC(=O)c1cccc2cn(-c3ccc([C@@H]4CCCNC4)cc3)nc12` [NIRAPARIB] displayed a half-maximal activity concentration (AC50) at Androgen receptor greater than 30 µM.

Compound `O=C(O)CCCN1CCC(O[C@@H](c2ccc(Cl)cc2)c2ccccn2)CC1` [BEPOTASTINE] came in with a half-maximal activity concentration (AC50) on Androgen receptor greater than 30 µM.

Compound `C[C@@H]1C[C@H]2[C@@H]3C[C@H](F)C4=CC(=O)C(Cl)=C[C@]4(C)[C@@]3(F)[C@@H](O)C[C@]2(C)[C@@]1(O)C(=O)CO` [HALOMETASONE] had a half-maximal activity concentration (AC50) at Androgen receptor of 10.3 µM.

Compound `CN1CCN(C(c2ccccc2)c2ccccc2)CC1` [CYCLIZINE] returned a half-maximal activity concentration (AC50) on Androgen receptor greater than 30 µM.

As for `CC(C(=O)O)c1ccc2c(c1)Cc1cccnc1O2` (stereo not given) [PRANOPROFEN], the concentration at half-maximal activity (AC50) on Androgen receptor was greater than 30 µM.

On Androgen receptor, `O=[N+]([O-])c1cncn1CCN1CCOCC1` [NIMORAZOLE] returned a concentration at half-maximal activity (AC50) greater than 30 µM.

On to `CN1CCC2=C(C1)c1ccccc1Cc1ccccc12` [SETIPTILINE], for which the half-maximal activity concentration (AC50) at Androgen receptor is greater than 30 µM.

On to `Nc1nc(-n2cc(C(=O)O)c(=O)c3cc(F)c(N4CC(O)C4)c(Cl)c32)c(F)cc1F` [DELAFLOXACIN], for which the AC50 at Androgen receptor was greater than 30 µM.

Compound `Cc1c(O)cccc1C(=O)N[C@@H](CSc1ccccc1)[C@H](O)CN1C[C@H]2CCCC[C@H]2C[C@H]1C(=O)NC(C)(C)C` registered an AC50 at Androgen receptor greater than 30 µM.

As for `C=C1C[C@@H]2[C@H](CC[C@]3(C)C(=O)CC[C@@H]23)[C@@]2(C)C=CC(=O)C=C12` [EXEMESTANE], the AC50 (in assay [1]; in assay [2]; at D(1A) dopamine receptor; in [3]; in assay [4]; at Histamine H2 receptor) was greater than 10 µM throughout. Moreover, the AC50 was greater than 30 µM in assay [5], greater than 30 µM at Melanocortin receptor 3, 2.41 µM in [6] and greater than 30 µM on D(3) dopamine receptor.

On to `O=C(O)CCn1c2c(c3ccccc31)C[C@H](NS(=O)(=O)c1ccc(F)cc1)CC2` [RAMATROBAN], for which the AC50 in assay [1] is greater than 10 µM; in assay [2], greater than 10 µM; on D(1A) dopamine receptor, greater than 30 µM; in assay [3] it was greater than 10 µM; in assay [4], greater than 10 µM; on Histamine H2 receptor, greater than 30 µM. Also, the half-maximal activity concentration (AC50) in [5] was greater than 30 µM; on Melanocortin receptor 3 it was greater than 30 µM; in assay [6], greater than 10 µM; at D(3) dopamine receptor it was greater than 30 µM.

On to `COc1cc2c(cc1OC)[C@H]1C[C@@H](OC(=O)[C@@H](N)C(C)C)[C@H](CC(C)C)CN1CC2` [VALBENAZINE], for which the AC50 at Androgen receptor is greater than 30 µM.

With `CC(=O)N[C@H]1[C@H]([C@H](O)[C@H](O)CO)OC(C(=O)O)=C[C@@H]1N=C(N)N` [ZANAMIVIR], the AC50 in assay [1] was greater than 10 µM; in [2], greater than 10 µM; at D(1A) dopamine receptor, greater than 30 µM; in assay [3] it was greater than 10 µM; in assay [4], greater than 10 µM; on Histamine H2 receptor, greater than 30 µM. Moreover, the AC50 was greater than 30 µM in assay [5], greater than 30 µM at Melanocortin receptor 3, greater than 10 µM in [6] and greater than 30 µM on D(3) dopamine receptor.

As to `N[C@@H](CSCC(=O)O)C(=O)O` [CARBOCYSTEINE], the concentration at half-maximal activity (AC50) (in assay [1]; in [2]; on D(1A) dopamine receptor; in assay [3]; in assay [4]; on Histamine H2 receptor) was greater than 30 µM throughout. The concentration at half-maximal activity (AC50) (in assay [5]; at Melanocortin receptor 3; in assay [6]; at D(3) dopamine receptor) was greater than 30 µM throughout.

In the case of `NS(=O)(=O)c1cc(Cl)c(Cl)c(S(N)(=O)=O)c1` [DICHLORPHENAMIDE], the concentration at half-maximal activity (AC50) (in assay [1]; in [2]; on D(1A) dopamine receptor; in assay [3]; in [4]; on Histamine H2 receptor) was greater than 10 µM each time. In addition, the AC50 in [5] was greater than 30 µM; on Melanocortin receptor 3, greater than 10 µM; in assay [6], greater than 10 µM; at D(3) dopamine receptor, greater than 30 µM.

With `CN(CCCN1c2ccccc2CCc2ccccc21)CC(=O)c1ccc(Cl)cc1` [LOFEPRAMINE], the concentration at half-maximal activity (AC50) was greater than 30 µM in assay [1]; greater than 30 µM in assay [2]; greater than 30 µM on D(1A) dopamine receptor; greater than 30 µM in assay [3]; 25 µM in assay [4]; greater than 30 µM on Histamine H2 receptor. Further, the AC50 is greater than 30 µM in assay [5], greater than 30 µM at Melanocortin receptor 3, 4.8 µM in [6] and 3 µM at D(3) dopamine receptor.

Take `O=C(Cn1ccnc1[N+](=O)[O-])NCc1ccccc1` [BENZNIDAZOLE]: the half-maximal activity concentration (AC50) (in assay [1]; in [2]; on D(1A) dopamine receptor; in assay [3]; in [4]; on Histamine H2 receptor) was greater than 30 µM in each case. Besides, the AC50 in [5] is greater than 30 µM; on Melanocortin receptor 3, greater than 30 µM; in [6], 21 µM; at D(3) dopamine receptor, greater than 30 µM.

Turning to `CN(C)CCCN1c2ccccc2Sc2ccccc21` [PROMAZINE], the concentration at half-maximal activity (AC50) (in [1]; in assay [2]; at D(1A) dopamine receptor; in assay [3]; in [4]; on Histamine H2 receptor) was greater than 10 µM throughout. The AC50 in [5] is greater than 10 µM; on Melanocortin receptor 3, greater than 30 µM; in [6], 1.99 µM; at D(3) dopamine receptor, 0.075 µM.

Regarding `CN(C/C=C/c1ccccc1)Cc1cccc2ccccc12` [NAFTIFINE], the concentration at half-maximal activity (AC50) (in [1]; in [2]; on D(1A) dopamine receptor; in assay [3]; in assay [4]; on Histamine H2 receptor) was greater than 10 µM throughout. Further, the concentration at half-maximal activity (AC50) in [5] was greater than 30 µM; at Melanocortin receptor 3, greater than 30 µM; in [6], 10.6 µM; on D(3) dopamine receptor, greater than 30 µM.

With `O=P(O)(O)C(O)(Cc1cccnc1)P(=O)(O)O` [RISEDRONIC ACID], the half-maximal activity concentration (AC50) in assay [1] is greater than 30 µM; in assay [2], greater than 30 µM; at D(1A) dopamine receptor, greater than 30 µM; in assay [3] it was greater than 30 µM; in assay [4], greater than 30 µM; at Histamine H2 receptor it was greater than 10 µM. Further, the half-maximal activity concentration (AC50) (in [5]; at Melanocortin receptor 3; in assay [6]; on D(3) dopamine receptor) was greater than 30 µM each time.
